{
  "source": "patent US20230310534A1",
  "about": "“QUENCHERS THAT SLOW, DECREASE, OR INHIBIT THE FORMATION OF CHEMIEXCITATION-INDUCED CYCLOBUTANE PYRIMIDINE DIMERS” (L'OREAL, priority 2017, published 2023)",
  "type_in_all_cases": "biochemical",
  "key": {"[1]": {"assay": "Melanin oxidation assay (peroxynitrite/melanin chemiluminescence quenching)", "conditions": "peroxynitrite, melanin and DBAS in DMSO; measured at 150 seconds and 500 seconds", "text": "An easy and fast assay was developed to measure quenching of chemiluminescence from the triplet carbonyl of a cleaved dioxetane that was created when peroxynitrite (ONOO—) reacted with melanin. As such, it measured both triplet quenching and any scavenging activity that prevented the chemiexcitation reaction from starting. DMSO was used as a solvent for the entire reaction, DBAS to enhance the luminescence and a liquid scintillation counter set to single-photon mode to detect the luminescence signal.\nIn this assay, peroxynitrite, melanin, and DBAS were incubated in DMSO in the absence or presence of test agents, and light emission quenching (%) was measured at 150 seconds and 500 seconds (FIG. 1)."}, "[2]": {"assay": "Peroxynitrite radical absorbance capacity test, dihydrorhodamine 123 indicator", "conditions": "activity grade 0-4", "protocol": "Peroxynitrite radical absorbance capacity tests were conducted to measure the capacity of an antioxidant material to quench peroxynitrite. Dihydrorhodamine 123 was used as an indicator of peroxynitrite in tubo for peroxynitrite radical absorbance capacity tests with Varioskan Flush. […]"}, "[3]": {"assay": "Superoxide radical absorbance capacity (SORAC) test, WST-1 probe", "conditions": "activity grade 0-4", "protocol": "Superoxide radical absorbance capacity tests were conducted to measure the capacity of an antioxidant material to dismutate superoxide anion. The Varioskan Flush was employed to measure the superoxide dismutase-catalyzed dismutation of the superoxide anion in the presence of the absorbance probe, water-soluble tetrazolium salt (WST-1). The superoxide radical antioxidant (SORAC) assay is based on an inhibition assay and is suitable for evaluating superoxide dismutase or superoxide dismutase-like activities in samples."}},
  "data": [
    {"smiles": "O=c1oc2c(O)c(O)cc3c(=O)oc4c(O)c(O)cc1c4c23", "note": "[Ellagic acid]", "values": [
      {"measurement": "light emission quenching (hit)", "setting": "[1]", "value": "showed a quenching effect"},
      {"measurement": "Anti-peroxynitrite", "setting": "[2]", "value": 4},
      {"measurement": "Anti-superoxide", "setting": "[3]", "value": 2}
    ]},
    {"smiles": "O=C(O[C@@H]1Cc2c(O)cc(O)cc2O[C@@H]1c1cc(O)c(O)c(O)c1)c1cc(O)c(O)c(O)c1", "note": "[Epigallocatechin Gallate]", "values": [
      {"measurement": "light emission quenching (hit)", "setting": "[1]", "value": "showed a quenching effect"},
      {"measurement": "Anti-peroxynitrite", "setting": "[2]", "value": 4},
      {"measurement": "Anti-superoxide", "setting": "[3]", "value": 4}
    ]},
    {"smiles": "COc1cc(/C=C/C(=O)O)ccc1O", "note": "[Ferulic Acid]", "values": [
      {"measurement": "light emission quenching (hit)", "setting": "[1]", "value": "showed a quenching effect"},
      {"measurement": "Anti-peroxynitrite", "setting": "[2]", "value": 4},
      {"measurement": "Anti-superoxide", "setting": "[3]", "value": 1}
    ]},
    {"smiles": "CC1=C(/C=C/C(C)=C/C=C/C(C)=C/C=C/C=C(C)/C=C/C=C(C)/C=C/C2=C(C)CCCC2(C)C)C(C)(C)CCC1", "note": "[beta-carotene]", "values": [
      {"measurement": "light emission quenching (hit)", "setting": "[1]", "value": "showed a quenching effect"}
    ]},
    {"smiles": "O=C(O)c1cccc(C(=O)O)n1", "note": "[dipicolinic acid]", "values": [
      {"measurement": "light emission quenching (hit)", "setting": "[1]", "value": "showed a quenching effect"}
    ]},
    {"smiles": "C/C=C/C=C/C(=O)O", "note": "[sorbic acid]", "values": [
      {"measurement": "light emission quenching (hit)", "setting": "[1]", "value": "showed a quenching effect"}
    ]},
    {"smiles": "CC(C)=CCC/C(C)=C/CC/C(C)=C/CC/C=C(\\C)CC/C=C(\\C)CCC=C(C)C", "note": "[squalene]", "values": [
      {"measurement": "light emission quenching (hit)", "setting": "[1]", "value": "showed a quenching effect"}
    ]}
  ]
}
